Measured values from US20150064255A1, “NANOSTRUCTURES FOR TREATING CANCERS AND OTHER CONDITIONS” (Northwestern University, priority 2012, published 2015).

What was measured:
SR-B1 = molecular target: T1, SR-B1 (Homo sapiens, UniProt Q8WTV0); assay: BLT-1 cholesterol flux assays in SUDHL-4 cells; assay type: cell-based; conditions: SUDHL-4 cells pre-treated with 10 μM BLT-1 for 2 hr
T1 construct: treatment of SUDHL-4 cells with BLT-1 allowed a measurement of engagement and cholesterol flux through SR-B1; endogenous in cells; host or cells: SUDHL-4 cells
T1 sequence (Q8WTV0 1-552): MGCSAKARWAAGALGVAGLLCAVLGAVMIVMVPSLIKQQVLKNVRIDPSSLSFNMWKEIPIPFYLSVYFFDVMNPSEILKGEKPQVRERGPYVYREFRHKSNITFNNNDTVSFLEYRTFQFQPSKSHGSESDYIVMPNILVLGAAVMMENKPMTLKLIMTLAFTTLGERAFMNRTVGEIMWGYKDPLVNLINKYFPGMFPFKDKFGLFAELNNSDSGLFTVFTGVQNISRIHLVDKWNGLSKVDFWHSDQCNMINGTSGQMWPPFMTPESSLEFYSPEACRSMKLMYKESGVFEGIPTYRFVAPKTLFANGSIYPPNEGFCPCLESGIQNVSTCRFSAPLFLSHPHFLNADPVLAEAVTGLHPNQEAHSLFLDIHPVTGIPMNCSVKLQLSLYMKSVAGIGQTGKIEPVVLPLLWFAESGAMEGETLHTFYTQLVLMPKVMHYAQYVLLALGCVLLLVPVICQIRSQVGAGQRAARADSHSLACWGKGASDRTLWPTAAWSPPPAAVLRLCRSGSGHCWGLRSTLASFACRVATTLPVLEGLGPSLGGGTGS
Description: Blocker of lipid transport-1 (BLT-1) is a small molecule that binds cysteine-384 in the extracellular loop domain of SR-B1 and inhibits cholesterol flux through SR-B1 without altering the binding of HDL particles to the receptor. Thus, treatment of SUDHL-4 cells with BLT-1 allowed a measurement of engagement and cholesterol flux through SR-B1.
Alterations in cholesterol flux after addition of blocker of lipid transport 1 (BLT-1) were measured as described above; however, cells were pre-treated with 10 μM BLT-1 (2-hexyl-1-cyclopentanone thiosemicarbazone, ChemBridge Corporation) for 2 hr prior to cell treatments. Following cholesterol influx or efflux, the cells were collected in fresh media for measurement of cholesterol flux as previously described. Efflux is expressed as a percentage of the control cells, which were not treated with BLT-1. Influx is expressed as a percentage of the control cells, which were not treated with BLT-1.

Ramos cells = assay: MTS cell viability assay; assay type: cell-based, human; conditions: untreated control set to 100%
Description: Ramos and SUDHL-4 cell lines are GC-derived B cell lines from BL and DLBCL, respectively. In addition, we chose to study the ABC-like DLBCL line, LY3. Jurkat cells and normal human lymphocytes provided SR-B1 receptor negative controls. In addition, we also chose two primary cells known to express SR-B1 that are critical cell types naturally engaged by HDLs, hepatocytes and macrophages. For each of the cell types, we measured cell viability by an MTS assay following treatment with human serum derived HDL (hHDL) or HDL-NPs. MTS is a colorimetric assay where the magnitude of absorbance is proportional to cell viability. For each treatment, and for each comparison made throughout our studies, we added equivalent doses of hHDL and HDL-NPs based upon the amount of apolipoprotein A-1 (Apo A1). […] Treatment with hHDL or HDL-NPs had no effect in primary hepatocytes or macrophage cells (FIGS. 3C and 3D). […]
For primary human hepatocytes and CD14+ monocytes, 9×10^3 cells/90 μL were seeded in 96-well plates and allowed to attach, and differentiate in the case of the CD14+ monocytes, for 24 hours prior to initiation of treatment. […] The absorbance was read at 490 nm using a microplate reader (MRX Revelation; DYNEX Technologies) and was expressed as a percentage of the control group. […]

cholesterol flux to hHDL and HDL-NPs (SR-B1)	SMILES	relative absorbance, MTS assay (cell viability) (Ramos cells)
inhibited cholesterol flux	CCCCCCC1CCCC1=NNC(N)=S (centres unmarked) [BLT-1, 2-hexyl-1-cyclopentanone thiosemicarbazone]	
	CCCCCCCCCCCCCCCC(=O)OC[C@H](COP(=O)(O)OCCNC(=O)CCSSc1ccccn1)OC(=O)CCCCCCCCCCCCCCC [PDP PE, 1,2-dipalmitoyl-sn-glycero-3-phosphoethanolamine-N-[3-(2-pyridyldithio)propionate]]	relatively small but statistically significant reduction
